Source: paper PMC9822553 (iScience, 2023)

What was measured:
SARS-CoV-2 Omicron = assay type: cell-based
SARS-CoV-2 Delta = assay type: cell-based

Row | Compound | inhibition of Omicron-induced caspase 3/7 activation (SARS-CoV-2 Omicron) | effect on SARS-CoV-2 replication in ALI HBE cultures (SARS-CoV-2 Delta) | drug-induced phospholipidosis (A549-ACE2 cells) | drug-induced phospholipidosis (Vero cells)
1 | Cc1cc(C)nc(NC(=S)N2CCN(Cc3ccc(C(F)(F)F)cc3)CC2)c1 [NCT-503] | inhibited | inhibited SARS-CoV-2 replication | – | –
2 | CCN(CCO)CCCC(C)Nc1ccnc2cc(Cl)ccc12 (stereo not shown) [hydroxychloroquine] | – | – | considerable phospholipidosis | considerable phospholipidosis
